Results on twelve compounds are retold here after patent US12502434B2, “Compound comprising EZH2 inhibitor and E3 ligase binder and pharmaceutical composition for preventing or treating EZH2-associated disease comprising same as active ingredient” (DAEGU-GYEONGBUK MEDICAL INNOVATION FOUNDATION, priority 2019, dated 2025).

Where two headings read alike, the source gives them in different places.

The target of the assay is T1, EZH2 protein in LS174T cells (Homo sapiens, UniProt Q15910).
T1 construct: endogenous in cells; host or cells: LS174T
T1 sequence (Q15910 whole entry): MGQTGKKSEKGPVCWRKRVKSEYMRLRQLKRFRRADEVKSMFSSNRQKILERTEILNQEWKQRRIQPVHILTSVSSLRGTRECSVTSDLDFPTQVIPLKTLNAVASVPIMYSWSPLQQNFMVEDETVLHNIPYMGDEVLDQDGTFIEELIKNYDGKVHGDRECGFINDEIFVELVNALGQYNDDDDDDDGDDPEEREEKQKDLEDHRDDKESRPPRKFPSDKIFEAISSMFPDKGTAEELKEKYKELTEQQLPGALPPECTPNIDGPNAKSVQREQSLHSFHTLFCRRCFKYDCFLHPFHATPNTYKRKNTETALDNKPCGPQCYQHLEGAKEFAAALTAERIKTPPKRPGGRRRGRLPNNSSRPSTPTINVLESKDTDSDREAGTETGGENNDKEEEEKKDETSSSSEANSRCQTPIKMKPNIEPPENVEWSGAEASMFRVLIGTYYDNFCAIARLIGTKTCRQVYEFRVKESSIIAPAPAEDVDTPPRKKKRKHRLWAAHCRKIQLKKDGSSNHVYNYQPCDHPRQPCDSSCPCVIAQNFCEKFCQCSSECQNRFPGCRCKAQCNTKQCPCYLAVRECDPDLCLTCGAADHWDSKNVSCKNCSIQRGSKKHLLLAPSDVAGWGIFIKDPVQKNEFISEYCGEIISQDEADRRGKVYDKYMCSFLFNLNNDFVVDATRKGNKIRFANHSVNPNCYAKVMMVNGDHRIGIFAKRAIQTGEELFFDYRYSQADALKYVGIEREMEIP
T1 sequence (O75530 whole entry partner): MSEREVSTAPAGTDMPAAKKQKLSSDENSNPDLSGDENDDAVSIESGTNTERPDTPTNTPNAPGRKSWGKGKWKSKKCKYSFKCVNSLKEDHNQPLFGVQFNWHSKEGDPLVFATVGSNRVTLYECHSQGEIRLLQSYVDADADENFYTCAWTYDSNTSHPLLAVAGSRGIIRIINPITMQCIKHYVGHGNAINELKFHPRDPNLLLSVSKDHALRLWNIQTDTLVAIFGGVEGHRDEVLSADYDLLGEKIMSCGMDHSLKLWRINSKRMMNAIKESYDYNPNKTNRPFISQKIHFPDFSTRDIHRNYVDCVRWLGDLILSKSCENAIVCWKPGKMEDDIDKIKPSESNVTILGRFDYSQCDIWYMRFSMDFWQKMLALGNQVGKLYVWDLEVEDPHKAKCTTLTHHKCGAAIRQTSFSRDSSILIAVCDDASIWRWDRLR
T1 sequence (Q15022 whole entry partner): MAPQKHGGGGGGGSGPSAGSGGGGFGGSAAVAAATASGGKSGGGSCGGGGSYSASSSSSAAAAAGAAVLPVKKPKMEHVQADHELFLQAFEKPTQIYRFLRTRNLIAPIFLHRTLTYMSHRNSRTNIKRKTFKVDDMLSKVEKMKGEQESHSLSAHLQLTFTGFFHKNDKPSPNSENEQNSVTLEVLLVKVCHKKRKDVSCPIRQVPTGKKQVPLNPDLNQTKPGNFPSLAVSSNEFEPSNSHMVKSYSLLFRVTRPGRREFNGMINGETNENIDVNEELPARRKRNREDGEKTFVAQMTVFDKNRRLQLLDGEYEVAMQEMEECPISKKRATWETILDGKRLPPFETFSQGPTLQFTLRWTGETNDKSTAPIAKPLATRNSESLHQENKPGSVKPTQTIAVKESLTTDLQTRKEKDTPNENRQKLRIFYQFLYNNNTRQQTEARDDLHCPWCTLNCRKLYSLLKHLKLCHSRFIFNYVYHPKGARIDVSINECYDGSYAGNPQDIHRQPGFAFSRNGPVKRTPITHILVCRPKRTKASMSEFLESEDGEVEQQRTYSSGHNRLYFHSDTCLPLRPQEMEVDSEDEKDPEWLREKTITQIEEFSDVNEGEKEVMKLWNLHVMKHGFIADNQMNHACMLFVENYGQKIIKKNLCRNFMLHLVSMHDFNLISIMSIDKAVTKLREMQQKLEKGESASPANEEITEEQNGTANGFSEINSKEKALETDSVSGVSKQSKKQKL
Briefly: Proteolytic effect in colorectal cancer cells (Western blotting). The format is cell-based. The protocol: After 72 hours of the treatment, the cells were collected and lysed using RIPA buffer (50 mM Tris, pH 7.5, 150 mM NaCl, 1% Triton X-100, 0.1% SDS, […], 0.5% deoxycholate, and protease inhibitor cocktail), followed by sonication (30 sec on/30 sec off, 5 cycles) to prepare a cell lysate.

[1] abbreviates: EZH2 protein, LS174T cells, 1 μM, 72 hours.
Setting [2] is: EZH2 protein, LS174T cells, 1 uM, 72 hours, Western blotting.

Regarding `CCN(c1cc(-c2ccc(CN3CCN(CCCCCCCOc4cccc5c4C(=O)N(C4CCC(=O)NC4=O)C5=O)CC3)cc2)cc(C(=O)NCc2c(C)cc(C)[nH]c2=O)c1C)C1CCOCC1` (stereo not drawn) [Example 10, N-((4,6-dimethyl-2-oxo-1,2-dihydropyridine-3-yl)methyl)-4′-((4-(7-((2-(2,6-dioxopiperidine-3-yl)-1,3-dioxoisoindoline-4-yl)oxy)heptyl)piperazine-1-yl)methyl)-5-(ethyl(tetrahydro-2H-pyran-4-yl)amino)-4-methyl-[1,1′-biphenyl]-3-carboxamide], the “Grade (percent value of the protein degradation when treated with 1 μM)” value under setting [1] was “D (<25%)”. In addition, the “%, degradation at 1 uM” value under setting [2] was 0%.
On the same counts, the results for `CCN(c1cc(-c2ccc(CN3CCN(CC(=O)NCCCCCOCCCOCC(=O)Nc4cccc5c4CN(C4CCC(=O)NC4=O)C5=O)CC3)cc2)cc(C(=O)NCc2c(C)cc(C)[nH]c2=O)c1C)C1CCOCC1` (stereo not drawn) [Example 27, N-((4,6-dimethyl-2-oxo-1,2-dihydropyridine-3-yl)methyl)-4′-((4-(2-((5-(3-(2-((2-(2,6-dioxopiperidine-3-yl)-1-oxoisoindoline-4-yl)amino)-2-oxoethoxy)propoxy)pentyl)amino)-2-oxoethyl)piperazine-1-yl)methyl)-5-(ethyl(tetrahydro-2H-pyran-4-yl)amino)-4-methyl-[1,1′-biphenyl]-3-carboxamide] are “D (<25%)” and 2.27%.
With `CCN(c1cc(-c2ccc(CN3CCN(CC(=O)NCCOCCCOc4cccc5c4C(=O)N(C4CCC(=O)NC4=O)C5=O)CC3)cc2)cc(C(=O)NCc2c(C)cc(C)[nH]c2=O)c1C)C1CCOCC1` (stereo not drawn) [Example 18, N-((4,6-dimethyl-2-oxo-1,2-dihydropyridine-3-yl)methyl)-4′-((4-(2-((2-(3-((2-(2,6-dioxopiperidine-3-yl)-1,3-dioxoisoindoline-4-yl)oxy)propoxy)ethyl)amino)-2-oxoethyl)piperazine-1-yl)methyl)-5-(ethyl(tetrahydro-2H-pyran-4-yl)amino)-4-methyl-[1,1′-biphenyl]-3-carboxamide], the “Grade (percent value of the protein degradation when treated with 1 μM)” value under setting [1] is given as “D (<25%)”. In addition, the “%, degradation at 1 uM” value under setting [2] was 16.74%.
For `CCN(c1cc(-c2ccc(CN3CCN(C(=O)c4cn(CCC(=O)N[C@H](C(=O)N5C[C@H](O)C[C@H]5C(=O)NCc5ccc(-c6scnc6C)cc5)C(C)(C)C)nn4)CC3)cc2)cc(C(=O)NCc2c(C)cc(C)[nH]c2=O)c1C)C1CCOCC1` [Example 47, (2S,4R)-1-((S)-2-(3-(4-(4-((3′-(((4,6-dimethyl-2-oxo-1,2-dihydropyridine-3-yl)methyl)carbamoyl)-5′-(ethyl(tetrahydro-2H-pyran-4-yl)amino)-4′-methyl-[1,1′-biphenyl]-4-yl)methyl)piperazine-1-carbonyl)-1H-1,2,3-triazole-1-yl)propanamido)-3,3-dimethylbutanoyl)-4-hydroxy-N-(4-(4-methylthiazole-5-yl)benzyl)pyrrolidine-2-carboxamide], in that order: “D (<25%)” and 0%.
On the same counts, the results for `CCN(c1cc(-c2ccc(CN3CCN(C(=O)CNCCCCNc4cccc5c4C(=O)N(C4CCC(=O)NC4=O)C5=O)CC3)cc2)cc(C(=O)NCc2c(C)cc(C)[nH]c2=O)c1C)C1CCOCC1` (stereo not drawn) [Example 13, N-((4,6-dimethyl-2-oxo-1,2-dihydropyridine-3-yl)methyl)-4′-((4-((4-((2-(2,6-dioxopiperidine-3-yl)-1,3-dioxoisoindoline-4-yl)amino)butyl)glycyl)piperazine-1-yl)methyl)-5-(ethyl(tetrahydro-2H-pyran-4-yl)amino)-4-methyl-[1,1′-biphenyl]-3-carboxamide] are “C (25-50%)” and 29.35%.
For `CCN(c1cc(-c2ccc(CN3CCN(CC(=O)NCCCCCCNc4cccc5c4C(=O)N(C4CCC(=O)NC4=O)C5=O)CC3)cc2)cc(C(=O)NCc2c(C)cc(C)[nH]c2=O)c1C)C1CCOCC1` (stereo not drawn) [Example 6, N-((4,6-dimethyl-2-oxo-1,2-dihydropyridine-3-yl)methyl)-4′-((4-(2-((6-((2-(2,6-dioxopiperidine-3-yl)-1,3-dioxoisoindoline-4-yl)amino)hexyl)amino)-2-oxoethyl)piperazine-1-yl)methyl)-5-(ethyl(tetrahydro-2H-pyran-4-yl)amino)-4-methyl-[1,1′-biphenyl]-3-carboxamide], in that order: “B (50-75%)” and 61.64%.
Consider `CCN(c1cc(-c2ccc(CN3CCN(CCCCCNc4cccc5c4C(=O)N(C4CCC(=O)NC4=O)C5=O)CC3)cc2)cc(C(=O)NCc2c(C)cc(C)[nH]c2=O)c1C)C1CCOCC1` (stereo not drawn) [Example 2, N-((4,6-dimethyl-2-oxo-1,2-dihydropyridine-3-yl)methyl)-4′-((4-(5-((2-(2,6-dioxopiperidine-3-yl)-1,3-dioxoisoindoline-4-yl)amino)pentyl)piperazine-1-yl)methyl)-5-(ethyl(tetrahydro-2H-pyran-4-yl)amino)-4-methyl-[1,1′-biphenyl]-3-carboxamide], for which the “Grade (percent value of the protein degradation when treated with 1 μM)” value under setting [1] is on record as “D (<25%)”. Further, the “%, degradation at 1 uM” value under setting [2] is 18.10%.
On the same counts, the results for `CCN(c1cc(-c2ccc(CN3CCN(CC(=O)NCCN4CCN(CCNc5cccc6c5C(=O)N(C5CCC(=O)NC5=O)C6=O)CC4)CC3)cc2)cc(C(=O)NCc2c(C)cc(C)[nH]c2=O)c1C)C1CCOCC1` (stereo not drawn) [Example 29, N-((4,6-dimethyl-2-oxo-1,2-dihydropyridine-3-yl)methyl)-4′-((4-(2-((2-(4-(2-((2-(2,6-dioxopiperidine-3-yl)-1,3-dioxoisoindoline-4-yl)amino)ethyl)piperazine-1-yl)ethyl)amino)-2-oxoethyl)piperazine-1-yl)methyl)-5-(ethyl(tetrahydro-2H-pyran-4-yl)amino)-4-methyl-[1,1′-biphenyl]-3-carboxamide] are “D (<25%)” and 0%.
With `CCN(c1cc(-c2ccc(CN3CCN(CC(=O)NCCCCCCNC(=O)[C@H](CC(C)C)NC(=O)[C@@H](O)[C@H](N)Cc4ccccc4)CC3)cc2)cc(C(=O)NCc2c(C)cc(C)[nH]c2=O)c1C)C1CCOCC1` [Example 50, 4′-((4-(2-((6-((S)-2-((2S,3R)-3-amino-2-hydroxy-4-phenylbutanamido)-4-methylpentanamido)hexyl)amino)-2-oxoethyl)piperazine-1-yl)methyl)-N-((4,6-dimethyl-2-oxo-1,2-dihydropyridine-3-yl)methyl)-5-(ethyl(tetrahydro-2H-pyran-4-yl)amino)-4-methyl-[1,1′-biphenyl]-3-carboxamide], the “%, degradation at 1 uM” value was 0% and the “Grade (percent value of the protein degradation when treated with 1 μM)” value is on record as “D (key: A: >75%; B: 50-75%; C: 25-50%; D: <25%)”.
Regarding `CCN(c1cc(-c2ccc(CN3CCN(C(=O)CNCCNc4cccc5c4C(=O)N(C4CCC(=O)NC4=O)C5=O)CC3)cc2)cc(C(=O)NCc2c(C)cc(C)[nH]c2=O)c1C)C1CCOCC1` (stereo not drawn) [Example 12, N-((4,6-dimethyl-2-oxo-1,2-dihydropyridine-3-yl)methyl)-4′-((4-((2-((2-(2,6-dioxopiperidine-3-yl)-1,3-dioxoisoindoline-4-yl)amino)ethyl)glycyl)piperazine-1-yl)methyl)-5-(ethyl(tetrahydro-2H-pyran-4-yl)amino)-4-methyl-[1,1′-biphenyl]-3-carboxamide], under setting [1], the “Grade (percent value of the protein degradation when treated with 1 μM)” value is on record as “D (<25%)”. Also, the “%, degradation at 1 uM” value under setting [2] amounted to 16.89%.
On the same counts, the results for `CCN(c1cc(-c2ccc(CN3CCN(CC(=O)N4CC5(CN(CCNc6cccc7c6C(=O)N(C6CCC(=O)NC6=O)C7=O)C5)C4)CC3)cc2)cc(C(=O)NCc2c(C)cc(C)[nH]c2=O)c1C)C1CCOCC1` (stereo not drawn) [Example 36, N-((4,6-dimethyl-2-oxo-1,2-dihydropyridine-3-yl)methyl)-4′-((4-(2-(6-(2-((2-(2,6-dioxopiperidine-3-yl)-1,3-dioxoisoindoline-4-yl)amino)ethyl)-2,6-diazaspiro[3.3]heptane-2-yl)-2-oxoethyl)piperazine-1-yl)methyl)-5-(ethyl(tetrahydro-2H-pyran-4-yl)amino)-4-methyl-[1,1′-biphenyl]-3-carboxamide] are “D (<25%)” and 0%.
As for `CCN(c1cc(-c2ccc(CN3CCN(CC(=O)NCCCOCCCOCC(=O)N[C@H](C(=O)N4C[C@H](O)C[C@H]4C(=O)NCc4ccc(-c5scnc5C)cc4)C(C)(C)C)CC3)cc2)cc(C(=O)NCc2c(C)cc(C)[nH]c2=O)c1C)C1CCOCC1` [Example 42, (2S,4R)-1-((S)-2-(tert-butyl)-16-(4-((3′-(((4,6-dimethyl-2-oxo-1,2-dihydropyridine-3-yl)methyl)carbamoyl)-5′-(ethyl(tetrahydro-2H-pyran-4-yl)amino)-4′-methyl-[1,1′-biphenyl]-4-yl)methyl)piperazine-1-yl)-4,15-dioxo-6,10-dioxa-3,14-diazahexadecanoyl)-4-hydroxy-N-(4-(4-methylthiazole-5-yl)benzyl)pyrrolidine-2-carboxamide], the “%, degradation at 1 uM” value turned out to be 0% and the “Grade (percent value of the protein degradation when treated with 1 μM)” value is “D (key: A: >75%; B: 50-75%; C: 25-50%; D: <25%)”.
